Source: patent US9326973B2, “Hepatitis C virus inhibitors” (priority 2012, dated 2016)

tested on: HCV replicon, genotype-1a variant with glutamine 30 changed to glutamate in the NS5A protein; assay: microbe, parasite or virus in culture; assay type: cell-based, HCV genotype 1a; conditions: HCV replicon genotype 1a Q30E (Q→E) variant; test compound titrated with an NS5A-targeting compound (BMS-790052 fixed at 200 nM); ranking of synergist activity
Summary of the method: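 Synergy was assessed by combining several fixed amounts of an NS5A-targeting compound with a titration of the second compound of interest.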

Row | Compound | Fold-Synergistic 1a (Q30E) [fold]
1 | CC(C)(C(=O)N[C@H](c1nc(-c2ccc(-c3ccc(-c4c[nH]c([C@@H](NC(=O)C(C)(C)C(=O)N5CC[C@@H](O)C5)C(C)(C)C)n4)cc3)cc2)c[nH]1)C(C)(C)C)C(=O)N1CC[C@@H](O)C1 [Compound W-151] | >10
2 | CC(C)(C)[C@H](NC(=O)C1(C(=O)N2CCC(F)(F)CC2)CC1)c1nc(-c2ccc(-c3ccc(-c4c[nH]c([C@@H](NC(=O)C5(C(=O)N6CCC(F)(F)CC6)CC5)C(C)(C)C)n4)cc3)cc2)c[nH]1 [Compound P-148] | >100
3 | COC(=O)N[C@H](C(=O)N[C@H](c1nc(-c2ccc3cc(-c4ccc(-c5cnc([C@@H](NC(=O)[C@@H](NC(=O)OC)C(C)C)C(C)(C)C)[nH]5)cc4)ccc3c2)c[nH]1)C(C)(C)C)C(C)C [Compound N-7] | <10
4 | Cc1cc(-c2ccc(-c3c[nH]c([C@@H](NC(=O)C(C)(C)C)C(C)(C)C)n3)cc2)ccc1-c1c[nH]c([C@@H](NC(=O)C(C)(C)C)C(C)(C)C)n1 [Compound N-86] | >100
5 | O=C(CC1CCCCC1)N1CCC[C@H]1c1ncc(-c2ccc(-c3ccc(-c4cnc([C@@H]5CCCN5C(=O)CC5CCCCC5)[nH]4)cc3)cc2)[nH]1 [Compound S-168] | >10
6 | CC1(C(=O)N[C@H](c2nc(-c3ccc(-c4ccc(-c5c[nH]c([C@@H](NC(=O)C6(C)CCCO6)C(C)(C)C)n5)cc4)cc3)c[nH]2)C(C)(C)C)CCCO1 (stereo partly drawn) [Compound L-69] | >100
7 | CC1(C)OC(=O)CC1C(=O)N[C@H](c1nc(-c2ccc(-c3ccc(-c4c[nH]c([C@@H](NC(=O)C5CC(=O)OC5(C)C)C(C)(C)C)n4)cc3)cc2)c[nH]1)C(C)(C)C (stereo partly drawn) [Compound S-279] | >10
8 | C[C@@H]1C[C@@H](C(=O)N[C@H](c2nc(-c3ccc(-c4ccc(-c5c[nH]c([C@@H](NC(=O)[C@@H]6C[C@@H](C)CN6C(=O)OC(C)(C)C)C(C)(C)C)n5)cc4)cc3)c[nH]2)C(C)(C)C)N(C(=O)OC(C)(C)C)C1 [Compound W-120] | >100
9 | CC(C)(C)[C@H](NC(=O)C12CC3CC(CC(C3)C1)C2)c1nc(-c2ccc(-c3ccc(-c4c[nH]c([C@@H](NC(=O)C56CC7CC(CC(C7)C5)C6)C(C)(C)C)n4)cc3)cc2)c[nH]1 [Compound N-62] | >100
10 | COC(=O)N1CCC(F)(F)C[C@H]1C(=O)N[C@H](c1nc(-c2ccc(-c3ccc(-c4c[nH]c([C@@H](NC(=O)[C@@H]5CC(F)(F)CCN5C(=O)OC)C(C)(C)C)n4)cc3)cc2)c[nH]1)C(C)(C)C [Compound L-43] | >100
11 | CC(C)[C@H](NC(=O)C(C)(C)C)c1nc(-c2ccc(-c3ccc(-c4c[nH]c([C@@H](NC(=O)C(C)(C)C)C(C)C)n4)c(F)c3)cc2)c[nH]1 [Compound N-89] | >100
12 | O=C(Cc1c[nH]c2ccccc12)N1CCC[C@H]1c1ncc(-c2ccc(-c3ccc(-c4cnc([C@@H]5CCCN5C(=O)Cc5c[nH]c6ccccc56)[nH]4)cc3)cc2)[nH]1 [Compound S-148] | >10
13 | CC(C)(C)OC(=O)N1CCCCC1(C)C(=O)N[C@H](c1nc(-c2ccc(-c3ccc(-c4c[nH]c([C@@H](NC(=O)C5(C)CCCCN5C(=O)OC(C)(C)C)C(C)(C)C)n4)cc3)cc2)c[nH]1)C(C)(C)C (stereo partly drawn) [Compound L-46a] | >100
14 | COC(=O)N[C@H](C(=O)N[C@H](c1nc(-c2ccc3cc(-c4ccc(-c5cnc([C@@H](NC(=O)[C@@H](NC(=O)OC)C(C)C)C(C)C)[nH]5)cc4)ccc3c2)c[nH]1)C(C)C)C(C)C [Compound P-1] | <10
15 | C[C@@H]1CN(C(C)(C)C(=O)N[C@H](c2nc(-c3ccc(-c4ccc(-c5c[nH]c([C@@H](NC(=O)C(C)(C)N6C[C@@H](C)O[C@@H](C)C6)C(C)(C)C)n5)cc4)cc3)c[nH]2)C(C)(C)C)C[C@H](C)O1 [Compound W-160] | >10
16 | C=C1C[C@@H](C(=O)N[C@H](c2nc(-c3ccc(-c4ccc(-c5c[nH]c([C@@H](NC(=O)[C@@H]6CC(=C)CN6C(=O)OC(C)(C)C)C(C)(C)C)n5)cc4)cc3)c[nH]2)C(C)(C)C)N(C(=O)OC(C)(C)C)C1 [Compound W-91] | >100
17 | Cc1c2c(nn1C)CCC(C(=O)N[C@H](c1nc(-c3ccc(-c4ccc(-c5c[nH]c([C@@H](NC(=O)C6CCc7nn(C)c(C)c7C6)C(C)(C)C)n5)cc4)cc3)c[nH]1)C(C)(C)C)C2 (stereo partly drawn) [Compound S-278] | >100
18 | CC(C)(C)[C@H](NC(=O)C1(N2CCOC2=O)CC1)c1nc(-c2ccc(-c3ccc(-c4c[nH]c([C@@H](NC(=O)C5(N6CCOC6=O)CC5)C(C)(C)C)n4)cc3)cc2)c[nH]1 [Compound L-26] | >100
19 | CC(C)CC(=O)NC1(c2nc(-c3ccc(-c4ccc(-c5c[nH]c(C6(NC(=O)CC(C)C)CCCC6)n5)cc4)cc3)c[nH]2)CCCC1 [Compound N-12] | <10
20 | C[C@H]1CC[C@@H](C(=O)N[C@H](c2nc(-c3ccc(-c4ccc(-c5c[nH]c([C@@H](NC(=O)[C@@H]6CC[C@H](C)N6C(=O)OC(C)(C)C)C(C)(C)C)n5)cc4)cc3)c[nH]2)C(C)(C)C)N1C(=O)OC(C)(C)C [Compound W-69] | >100

Row | Compound | Fold-Synergistic 1a (Q30E) [fold]
21 | CC1([C@H](NC(=O)[C@@]2(C)CC(F)(F)CO2)c2nc(-c3ccc(-c4ccc(-c5c[nH]c([C@@H](NC(=O)[C@@]6(C)CC(F)(F)CO6)C6(C)CC6)n5)cc4)cc3)c[nH]2)CC1 [Compound Y-83] | >100
22 | CN1CCN(C(=O)C(=O)N[C@H](c2nc(-c3ccc(-c4ccc(-c5c[nH]c([C@@H](NC(=O)C(=O)N6CCN(C)CC6)C(C)(C)C)n5)cc4)cc3)c[nH]2)C(C)(C)C)CC1 [Compound W-35] | >100
23 | CC(C)(C)OC(=O)N1CCC[C@@H]1C(=O)N[C@H](c1nc(-c2ccc(-c3ccc(-c4c[nH]c([C@@H](NC(=O)[C@H]5CCCN5C(=O)OC(C)(C)C)C(C)(C)C)n4)cc3)cc2)c[nH]1)C(C)(C)C [Compound W-87] | >100
24 | CC(C)(C)[C@H](NC(=O)C1CC2(C1)OCCO2)c1nc(-c2ccc(-c3ccc(-c4c[nH]c([C@@H](NC(=O)C5CC6(C5)OCCO6)C(C)(C)C)n4)cc3)cc2)c[nH]1 (stereo partly drawn) [Compound W-178] | >100
25 | CCN(CC(F)(F)F)C(=O)C(=O)N[C@H](c1nc(-c2ccc(-c3ccc(-c4c[nH]c([C@@H](NC(=O)C(=O)N(CC)CC(F)(F)F)C5CC5)n4)cc3)cc2)c[nH]1)C1CC1 [Compound L-35] | >100
26 | CC(=O)N1CCC[C@H]1c1ncc(-c2ccc(-c3ccc(-c4cnc([C@@H]5CCCN5C(C)=O)[nH]4)cc3)cc2)[nH]1 [Compound S-113] | <10
27 | CC(C)(C)[C@H](NC(=O)[C@@H]1C[C@@H](F)CN1C(=O)OCCF)c1nc(-c2ccc(-c3ccc(-c4c[nH]c([C@@H](NC(=O)[C@@H]5C[C@@H](F)CN5C(=O)OCCF)C(C)(C)C)n4)cc3)cc2)c[nH]1 [Compound W-108] | >100
28 | NC(=O)CCC(=O)N1CCC[C@H]1c1ncc(-c2ccc(-c3ccc(-c4cnc([C@@H]5CCCN5C(=O)CCC(N)=O)[nH]4)cc3)cc2)[nH]1 [Compound S-186] | <10
29 | CC(C)(C(=O)N[C@H](c1nc(-c2ccc(-c3ccc(-c4c[nH]c([C@@H](NC(=O)C(C)(C)C(=O)N5CCC(F)(F)CC5)C(C)(C)C)n4)cc3)cc2)c[nH]1)C(C)(C)C)C(=O)N1CCC(F)(F)CC1 [Compound W-141] | >100
30 | C[C@@H]1CCCCN1C(=O)C(=O)N[C@H](c1nc(-c2ccc(-c3ccc(-c4c[nH]c([C@@H](NC(=O)C(=O)N5CCCC[C@H]5C)C(C)(C)C)n4)cc3)cc2)c[nH]1)C(C)(C)C [Compound W-38] | >100
31 | CC(C)(C)[C@H](NC(=O)C(C)(C)[C@]1(O)C[C@H]2CC(F)(F)C[C@H]2C1)c1nc(-c2ccc(-c3ccc(-c4c[nH]c([C@@H](NC(=O)C(C)(C)[C@]5(O)C[C@H]6CC(F)(F)C[C@H]6C5)C(C)(C)C)n4)cc3)cc2)c[nH]1 [Compound P-157] | >100
32 | O=C(C1CC1)N1CCC[C@H]1c1ncc(-c2ccc(-c3ccc(-c4cnc([C@@H]5CCCN5C(=O)C5CC5)[nH]4)cc3)cc2)[nH]1 [Compound S-109] | <10
33 | O=C(C1CCCCCC1)N1CCC[C@H]1c1ncc(-c2ccc(-c3ccc(-c4cnc([C@@H]5CCCN5C(=O)C5CCCCCC5)[nH]4)cc3)cc2)[nH]1 [Compound S-176] | >10
34 | Cc1onc(-c2ccccc2)c1C(=O)N1CCC[C@H]1c1ncc(-c2ccc(-c3ccc(-c4cnc([C@@H]5CCCN5C(=O)c5c(-c6ccccc6)noc5C)[nH]4)cc3)cc2)[nH]1 [Compound S-118] | <10
35 | CC(C)(C)[C@H](NC(=O)[C@@]1(C)CCCCO1)c1nc(-c2ccc(-c3ccc(-c4c[nH]c([C@@H](NC(=O)[C@@]5(C)CCCCO5)C(C)(C)C)n4)cc3)cc2)c[nH]1 [Compound P-176] | >100
36 | O=C(CC1CC1)N1CCC[C@H]1c1ncc(-c2ccc(-c3ccc(-c4cnc([C@@H]5CCCN5C(=O)CC5CC5)[nH]4)cc3)cc2)[nH]1 [Compound S-110] | <10
37 | C=C[C@@H]1C[C@]1(NC(=O)OC(C)(C)C)C(=O)N[C@H](c1nc(-c2ccc(-c3ccc(-c4c[nH]c([C@@H](NC(=O)[C@@]5(NC(=O)OC(C)(C)C)C[C@H]5C=C)C(C)(C)C)n4)cc3)cc2)c[nH]1)C(C)(C)C [Compound W-7] | >100
38 | CC(C)[C@H](NC(=O)[C@@H]1C2C[C@@H]2CN1C(=O)OC(C)(C)C)c1nc(-c2ccc(-c3ccc(-c4c[nH]c([C@@H](NC(=O)[C@@H]5C6C[C@@H]6CN5C(=O)OC(C)(C)C)C(C)C)n4)cc3)cc2)c[nH]1 (stereo partly drawn) [Compound W-74] | >100
39 | Cc1cc(-c2ccc(-c3c[nH]c([C@@H](NC(=O)C4(C)CCC(F)(F)CC4)C(C)C)n3)cc2)ccc1-c1c[nH]c([C@@H](NC(=O)C2(C)CCC(F)(F)CC2)C(C)C)n1 [Compound N-84] | >100
